Data taken from US11904020B2, “Bicyclic peptide ligands specific for TREM2” (Bicycle Tx Limited, priority 2021, dated 2024).
*1 amine or outer side, *2 acyl side, *3 side chain or, on linkers, in order; H or OH if unused. Where a SMILES comes first, the peptide text is derived from it. Bridges are numbered along the chain shown (N, C = ends). [ ]: non-standard residue; d: D form. TATA = O=C(CC[*:1])N1CN(C(=O)CC[*:2])CN(C(=O)CC[*:3])C1; Bip = N[C@@H](Cc1ccc(-c2ccccc2)cc1)C(=O)O; 1Nal = N[C@@H](Cc1cccc2ccccc12)C(=O)O; Phe(2-Me) = Cc1ccccc1C[C@H](N)C(=O)O; tBuAla = CC(C)(C)C[C@H](N)C(=O)O; 4Pal = N[C@@H](Cc1ccncc1)C(=O)O

The compounds below were run against TREM2 extracellular domain (ECD) (residues 19-131, C-terminally biotinylated, deglycosylated or glycosylated) (Homo sapiens, UniProt Q9NZC2) (assay: biochemical). Conditions: Human BLI (Kd; nM) (deglycosylated), Table 4B; deglycosylated human TREM2 ECD; steady-state KD, 25° C.
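Also: Bio-layer interferometry in 50 mM HEPES pH 7.5 with 150 mM NaCl and 0.1% Tween, double-referenced with blank wells and unrelated-protein sensors, equilibrium response fitted versus concentration.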
Description: Bio-layer interferometry was performed on an Octet RED384® system (Sartorius) at 25° C. in a buffer containing 50 mM HEPES (pH 7.5), 150 mM NaCl and 0.1% Tween. TREM2 extracellular domain (ECD) (residues 19-131, C-terminally biotinylated, deglycosylated or glycosylated) was loaded onto Superstreptavidin biosensors (SSA, 18-5070, Sartorius) at 0.0125 mg/ml for 300 s. Bicycle peptides (10 mM in DMSO) were dispensed into 384-Well Tilted-Bottom Plates (18-5076, Sartorius) using an Echo liquid handler giving a final DMSO concentration of 0.125% in all wells including control wells. Association of defined concentrations of bicyclic peptide (0-12.5 μM, 1:2 dilutions for 7 points) was recorded over 120 s followed by dissociation in buffer over 120 s. Reference wells containing no bicycle peptides and reference sensors loaded with an unrelated protein (His-tagged MLLT3a) were subjected to the same assay protocol and double reference subtraction was used for processing to account for non-specific binding. Traces were analysed using Octet Software (Version 11.0). Association and dissociation curves were globally fit and the response at equilibrium (Req) plotted against concentration to obtain steady-state KD values.

Chain of TREM2 extracellular domain (ECD) (residues 19-131, C-terminally biotinylated, deglycosylated or glycosylated) (Q9NZC2 19-131): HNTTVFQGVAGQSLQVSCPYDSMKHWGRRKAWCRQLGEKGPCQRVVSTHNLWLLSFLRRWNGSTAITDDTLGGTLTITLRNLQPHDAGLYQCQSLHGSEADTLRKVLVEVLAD

In order of falling Kd:
1. CC(=O)N[C@H]1CSCCC(=O)N2CN3CN(C2)C(=O)CCSC[C@H](NC(=O)[C@H](Cc2ccc(O)cc2)NC(=O)[C@@H](C)NC(=O)[C@H](CO)NC1=O)C(=O)N[C@@H](Cc1ccccc1)C(=O)N[C@@H](Cc1c[nH]c2ccccc12)C(=O)N1CCC[C@H]1C(=O)N[C@@H](Cc1ccccc1)C(=O)N[C@@H](Cc1ccc(O)cc1)C(=O)N[C@@H](Cc1c[nH]cn1)C(=O)N[C@H](C(N)=O)CSCCC3=O [BCY20087, Ac-(SEQ ID NO: 80)]  18000 nM
2. CC(=O)N[C@H]1CSCCC(=O)N2CN3CN(C2)C(=O)CCSC[C@H](NC(=O)[C@H](Cc2ccc(O)cc2)NC(=O)[C@H](CCC(=O)O)NC(=O)[C@@H](C)NC1=O)C(=O)N[C@@H](Cc1ccccc1)C(=O)N[C@@H](Cc1c[nH]c2ccccc12)C(=O)N1CCC[C@H]1C(=O)N[C@@H](Cc1ccccc1)C(=O)N[C@@H](Cc1ccc(O)cc1)C(=O)N[C@@H](Cc1c[nH]cn1)C(=O)N[C@H](C(N)=O)CSCCC3=O [BCY20086, Ac-(SEQ ID NO: 79)]  17900 nM
3. CC(=O)N[C@H]1CSCCC(=O)N2CN3CN(C2)C(=O)CCSC[C@H](NC(=O)[C@H](Cc2ccc(O)cc2)NC(=O)[C@H](CCC(=O)O)NC(=O)[C@H](CO)NC1=O)C(=O)N[C@@H](Cc1ccccc1)C(=O)N[C@@H](Cc1c[nH]c2ccccc12)C(=O)N1CCC[C@H]1C(=O)N[C@@H](Cc1ccncc1)C(=O)N[C@@H](Cc1ccc(O)cc1)C(=O)N[C@@H](Cc1c[nH]cn1)C(=O)N[C@H](C(N)=O)CSCCC3=O [BCY20569, Ac-(SEQ ID NO: 95)] (Ac-CSEYCFWP[4Pal]YHC-NH2; linker 1-5-12 via TATA)  3800 nM
4. CC(=O)N[C@H]1CSCCC(=O)N2CN3CN(C2)C(=O)CCSC[C@H](NC(=O)[C@H](Cc2ccc(O)cc2)NC(=O)[C@H](CCC(=O)O)NC(=O)[C@H](CO)NC1=O)C(=O)N[C@@H](Cc1cccc2ccccc12)C(=O)N[C@@H](Cc1c[nH]c2ccccc12)C(=O)N1CCC[C@H]1C(=O)N[C@@H](Cc1ccccc1)C(=O)N[C@@H](Cc1ccc(O)cc1)C(=O)N[C@@H](Cc1c[nH]cn1)C(=O)N[C@H](C(N)=O)CSCCC3=O [BCY20054, Ac-(SEQ ID NO: 49)] (Ac-CSEYC[1Nal]WPFYHC-NH2; linker 1-5-12 via TATA)  2540 nM
5. CC(=O)N[C@H]1CSCCC(=O)N2CN3CN(C2)C(=O)CCSC[C@H](NC(=O)[C@H](Cc2ccc(O)cc2)NC(=O)[C@H](CCC(=O)O)NC(=O)[C@H](CO)NC1=O)C(=O)N[C@@H](Cc1ccccc1)C(=O)N[C@@H](Cc1c[nH]c2ccccc12)C(=O)N1CC[C@H]1C(=O)N[C@@H](Cc1ccccc1)C(=O)N[C@@H](Cc1ccc(O)cc1)C(=O)N[C@@H](Cc1c[nH]cn1)C(=O)N[C@H](C(N)=O)CSCCC3=O [BCY20068, Ac-(SEQ ID NO: 64)]  2540 nM
6. CC(=O)N[C@H]1CSCCC(=O)N2CN3CN(C2)C(=O)CCSC[C@H](NC(=O)[C@H](Cc2ccc(O)cc2)NC(=O)[C@H](CCC(=O)O)NC(=O)[C@H](CO)NC1=O)C(=O)N[C@@H](Cc1ccccc1)C(=O)N[C@@H](Cc1c[nH]c2ccccc12)C(=O)N1CCC[C@H]1C(=O)N[C@@H](Cc1ccc(-c2ccccc2)cc1)C(=O)N[C@@H](Cc1ccc(O)cc1)C(=O)N[C@@H](Cc1c[nH]cn1)C(=O)N[C@H](C(N)=O)CSCCC3=O [BCY20075, Ac-(SEQ ID NO: 71)] (Ac-CSEYCFWP[Bip]YHC-NH2; linker 1-5-12 via TATA)  2400 nM
7. CC(=O)N[C@H]1CSCCC(=O)N2CN3CN(C2)C(=O)CCSC[C@H](NC(=O)[C@H](Cc2ccc(O)cc2)NC(=O)[C@H](CCC(=O)O)NC(=O)[C@H](CO)NC1=O)C(=O)N[C@@H](Cc1ccccc1)C(=O)N[C@@H](Cc1c[nH]c2ccccc12)C(=O)N1CCC[C@H]1C(=O)N[C@@H](Cc1ccccc1)C(=O)N[C@@H](Cc1ccc(O)cc1)C(=O)N[C@@H](CC(N)=O)C(=O)N[C@H](C(N)=O)CSCCC3=O [BCY20083, Ac-(SEQ ID NO: 78)] (Ac-CSEYCFWPFYNC-NH2; linker 1-5-12 via TATA)  1830 nM
8. CC(=O)N[C@H]1CSCCC(=O)N2CN3CN(C2)C(=O)CCSC[C@H](NC(=O)[C@H](Cc2ccc(O)cc2)NC(=O)[C@H](CCC(=O)O)NC(=O)[C@H](CO)NC1=O)C(=O)N[C@@H](Cc1ccccc1)C(=O)N[C@@H](Cc1c[nH]c2ccccc12)C(=O)N1CCCC[C@H]1C(=O)N[C@@H](Cc1ccccc1)C(=O)N[C@@H](Cc1ccc(O)cc1)C(=O)N[C@@H](Cc1c[nH]cn1)C(=O)N[C@H](C(N)=O)CSCCC3=O [BCY20069, Ac-(SEQ ID NO: 62)]  1460 nM
9. CC(=O)N[C@H]1CSCCC(=O)N2CN3CN(C2)C(=O)CCSC[C@H](NC(=O)[C@H](Cc2ccc(O)cc2)NC(=O)[C@H](CCC(=O)O)NC(=O)[C@H](CO)NC1=O)C(=O)N[C@@H](Cc1ccccc1)C(=O)N[C@@H](Cc1c[nH]c2ccccc12)C(=O)N1CCC[C@H]1C(=O)N[C@@H](Cc1ccccc1)C(=O)N[C@@H](Cc1ccc(O)cc1)C(=O)N[C@@H](Cc1ccccc1)C(=O)N[C@H](C(N)=O)CSCCC3=O [BCY20576, Ac-(SEQ ID NO: 102)] (Ac-CSEYCFWPFYFC-NH2; linker 1-5-12 via TATA)  1350 nM
10. CC(=O)N[C@H]1CSCCC(=O)N2CN3CN(C2)C(=O)CCSC[C@H](NC(=O)[C@H](Cc2ccc(O)cc2)NC(=O)[C@H](CCC(=O)O)NC(=O)[C@H](CO)NC1=O)C(=O)N[C@@H](Cc1ccccc1)C(=O)N[C@@H](Cc1ccccc1C)C(=O)N1CCC[C@H]1C(=O)N[C@@H](Cc1ccccc1)C(=O)N[C@@H](Cc1ccc(O)cc1)C(=O)N[C@@H](Cc1c[nH]cn1)C(=O)N[C@H](C(N)=O)CSCCC3=O [BCY20063, Ac-(SEQ ID NO: 61)] (Ac-CSEYCF[Phe(2-Me)]PFYHC-NH2; linker 1-5-12 via TATA)  1300 nM
11. CC(=O)N[C@H]1CSCCC(=O)N2CN3CN(C2)C(=O)CCSC[C@H](NC(=O)[C@H](Cc2ccc(O)cc2)NC(=O)[C@H](CCC(=O)O)NC(=O)[C@H](CO)NC1=O)C(=O)N[C@@H](Cc1ccccc1)C(=O)N[C@@H](Cc1c[nH]c2ccccc12)C(=O)N1CCC[C@H]1C(=O)N[C@@H](Cc1ccccc1)C(=O)N[C@@H](CCC(N)=O)C(=O)N[C@@H](Cc1ccc(O)cc1)C(=O)N[C@H](C(N)=O)CSCCC3=O [BCY20220, Ac-(SEQ ID NO: 23)] (Ac-CSEYCFWPFQYC-NH2; linker 1-5-12 via TATA)  1300 nM
12. CC(=O)N[C@H]1CSCCC(=O)N2CN3CN(C2)C(=O)CCSC[C@H](NC(=O)[C@H](Cc2ccc(O)cc2)NC(=O)[C@H](CCC(=O)O)NC(=O)[C@H](CO)NC1=O)C(=O)N[C@@H](Cc1ccccc1)C(=O)N[C@@H](Cc1c[nH]c2ccccc12)C(=O)N1CCC[C@H]1C(=O)N[C@@H](Cc1ccccc1)C(=O)N[C@@H](Cc1ccc(O)cc1)C(=O)N[C@@H](CCC(N)=O)C(=O)N[C@H](C(N)=O)CSCCC3=O [BCY20572, Ac-(SEQ ID NO: 98)] (Ac-CSEYCFWPFYQC-NH2; linker 1-5-12 via TATA)  1060 nM

Same assay, conditions: Human BLI (Kd; nM) glycosylated, Table 4B; glycosylated human TREM2 ECD

In order of falling Kd:
1. CC(=O)N[C@H]1CSCCC(=O)N2CN3CN(C2)C(=O)CCSC[C@H](NC(=O)[C@H](Cc2ccc(O)cc2)NC(=O)[C@H](CCC(=O)O)NC(=O)[C@H](CO)NC1=O)C(=O)N[C@@H](Cc1cccc2ccccc12)C(=O)N[C@@H](Cc1c[nH]c2ccccc12)C(=O)N1CCC[C@H]1C(=O)N[C@@H](Cc1ccccc1)C(=O)N[C@@H](Cc1ccc(O)cc1)C(=O)N[C@@H](Cc1c[nH]cn1)C(=O)N[C@H](C(N)=O)CSCCC3=O [BCY20054, Ac-(SEQ ID NO: 49)] (Ac-CSEYC[1Nal]WPFYHC-NH2; linker 1-5-12 via TATA)  1830 nM
2. CC(=O)N[C@H]1CSCCC(=O)N2CN3CN(C2)C(=O)CCSC[C@H](NC(=O)[C@H](Cc2ccc(O)cc2)NC(=O)[C@H](CCC(=O)O)NC(=O)[C@H](CO)NC1=O)C(=O)N[C@@H](Cc1ccccc1)C(=O)N[C@@H](Cc1c[nH]c2ccccc12)C(=O)N1CCC[C@H]1C(=O)N[C@@H](CC(C)(C)C)C(=O)N[C@@H](Cc1ccc(O)cc1)C(=O)N[C@@H](Cc1c[nH]cn1)C(=O)N[C@H](C(N)=O)CSCCC3=O [BCY20074, Ac-(SEQ ID NO: 68)] (Ac-CSEYCFWP[tBuAla]YHC-NH2; linker 1-5-12 via TATA)  920 nM
3. CC(=O)N[C@H]1CSCCC(=O)N2CN3CN(C2)C(=O)CCSC[C@H](NC(=O)[C@H](Cc2ccc(O)cc2)NC(=O)[C@H](CCC(=O)O)NC(=O)[C@H](CO)NC1=O)C(=O)N[C@@H](Cc1ccccc1)C(=O)N[C@@H](Cc1c[nH]c2ccccc12)C(=O)N1CCC[C@H]1C(=O)N[C@@H](Cc1ccccc1)C(=O)N[C@@H](Cc1c[nH]c2ccccc12)C(=O)N[C@@H](Cc1c[nH]cn1)C(=O)N[C@H](C(N)=O)CSCCC3=O [BCY20077, Ac-(SEQ ID NO: 73)] (Ac-CSEYCFWPFWHC-NH2; linker 1-5-12 via TATA)  750 nM
